Source: US12390441B2, “Immunomodulating o-het/aryl azalides” (Zoetis Services LLC, priority 2020, dated 2025)

Key:
Experiment in all cases: Whole blood assay, LPS stimulation, MSD cytokine detection
[1] = system: TNF-α; format: cell-based; conditions: fresh whole bovine blood
Method: (§1) Compounds of the invention were evaluated against a positive control for their ability to inhibit LPS-induced IL-1p and TNF-α as an overall evaluation of relative potency and modulation of target pathways.
(§2) In the bovine whole blood in vitro screening assay the inhibition of TNFα as induced by stimulation by lipopolysaccharide (LPS) and as measured by half the maximal inhibitory concentration (IC50) is recognized as the primary biomarker of immunomodulation potency upon pretreatment with the compounds of the invention. IL-1β is a mediator of the inflammation response and is involved in a number of cellular activities including proliferation, differentiation and apoptosis. IL-1β is also released upon cellular stress or cytotoxicity or upon TLR stimulation. In the bovine whole blood assay the stimulation of IL-1β release upon increasing concentration of test compound is seen as a potential cellular toxicity signal as induced by the test compound. In order to estimate a therapeutic index from the in vitro assay a differential between the TNFα IC50 (immunomodulation potency) versus the perceived cellular toxicity concentration (IL-1β release or overstimulation) was utilized. […] As the in vitro assay index approaches 1 it is proposed that the balance between immunomodulation and cytotoxicity would be too narrow in order to achieve an efficacious dose in vivo.

[2] = system: IL-1β; format: cell-based, bovine; conditions: fresh whole bovine blood, LPS stimulation; drug concentration giving overstimulation (OS) of IL-1β
Method: as §1, §2

[3] = system: IL-6; format: cell-based; conditions: fresh whole bovine blood

## CC[C@H]1OC(=O)[C@H](C)[C@@H](O)[C@H](C)[C@@H](O[C@@H]2O[C@H](C)C[C@H](N(C)C(=O)N(C)C)[C@H]2Oc2ccc(F)cc2C)[C@](C)(O)C[C@@H](C)CN[C@H](C)[C@@H](O)[C@]1(C)O [Example C-25]
[1]
  IC50: 59 µM
[2]
  IL-1ß OS of LPS: 40 µM
[3]
  IC50: 25 µM

## CC[C@H]1OC(=O)[C@H](C)[C@@H](O)[C@H](C)[C@@H](O[C@@H]2O[C@H](C)C[C@H](N(C)C(=O)N(C)c3ccccc3)[C@H]2Oc2ccc(Cl)nc2)[C@](C)(O)C[C@@H](C)CN[C@H](C)[C@@H](O)[C@]1(C)O [Example C-33]
[1]
  IC50: 6 µM
[2]
  IL-1ß OS of LPS: 16 µM
[3]
  IC50: < 1 µM

## CC[C@H]1OC(=O)[C@H](C)[C@@H](O)[C@H](C)[C@@H](O[C@@H]2O[C@H](C)C[C@H](N(C)C(=O)N(C)c3ccccc3)[C@H]2Oc2ccc(OC)c(OC(C)C)c2)[C@](C)(O)C[C@@H](C)CN[C@H](C)[C@@H](O)[C@]1(C)O [Example C-34]
[1]
  IC50: 28 µM
[2]
  IL-1ß OS of LPS: 16 µM
[3]
  IC50: 16 µM

## CC[C@H]1OC(=O)[C@H](C)[C@@H](O)[C@H](C)[C@@H](O[C@@H]2O[C@H](C)C[C@H](N(C)C(=O)N(C)c3ccccc3)[C@H]2Oc2ccc3ncccc3c2)[C@](C)(O)C[C@@H](C)CN(C)[C@H](C)[C@@H](O)[C@]1(C)O [Example C-35]
[1]
  IC50: 12 µM
[2]
  IL-1ß OS of LPS: >250 µM
[3]
  IC50: 18 µM

## CCOc1cccc(O[C@H]2[C@H](O[C@@H]3[C@@H](C)[C@H](O)[C@@H](C)C(=O)O[C@H](CC)[C@@](C)(O)[C@H](O)[C@@H](C)NC[C@H](C)C[C@@]3(C)O)O[C@H](C)C[C@@H]2N(C)C(=O)N(C)c2ccc(N(C)C)cc2)c1 [Example C-36]
[1]
  IC50: 2 µM
[2]
  IL-1ß OS of LPS: 16 µM
[3]
  IC50: 10 µM

## CCOc1cccc(O[C@H]2[C@H](O[C@@H]3[C@@H](C)[C@H](O)[C@@H](C)C(=O)O[C@H](CC)[C@@](C)(O)[C@H](O)[C@@H](C)NC[C@H](C)C[C@@]3(C)O)O[C@H](C)C[C@@H]2N(C)C(=O)N(C)c2ccccc2)c1 [Example C-37]
[1]
  IC50: 5 µM
[2]
  IL-1ß OS of LPS: 16 µM
[3]
  IC50: < 1 µM

## CC[C@H]1OC(=O)[C@H](C)[C@@H](O)[C@H](C)[C@@H](O[C@@H]2O[C@H](C)C[C@H](N(C)C(=O)N(C)c3ccccc3)[C@H]2Oc2ccccc2Cl)[C@](C)(O)C[C@@H](C)CN[C@H](C)[C@@H](O)[C@]1(C)O [Example C-38]
[1]
  IC50: 5 µM
[2]
  IL-1ß OS of LPS: 16 µM
[3]
  IC50: 26 µM

## CC[C@H]1OC(=O)[C@H](C)[C@@H](O)[C@H](C)[C@@H](O[C@@H]2O[C@H](C)C[C@H](N(C)C(=O)N(C)c3ccccc3)[C@H]2Oc2cc(F)c(OC)c(F)c2)[C@](C)(O)C[C@@H](C)CN[C@H](C)[C@@H](O)[C@]1(C)O [Example C-42]
[1]
  IC50: 5 µM
[2]
  IL-1ß OS of LPS: 16 µM
[3]
  IC50: 12 µM

## CC[C@H]1OC(=O)[C@H](C)[C@@H](O)[C@H](C)[C@@H](O[C@@H]2O[C@H](C)C[C@H](N(C)C(=O)N(C)c3ccc(C#N)cc3)[C@H]2Oc2ccccc2Cl)[C@](C)(O)C[C@@H](C)CN[C@H](C)[C@@H](O)[C@]1(C)O [Example C-43]
[1]
  IC50: 21 µM
[2]
  IL-1ß OS of LPS: 16 µM
[3]
  IC50: 32 µM

## CC[C@H]1OC(=O)[C@H](C)[C@@H](O)[C@H](C)[C@@H](O[C@@H]2O[C@H](C)C[C@H](N(C)C(=O)N(C)c3ccccc3)[C@H]2Oc2cc(F)c(OC)c(F)c2)[C@](C)(O)C[C@@H](C)CN(C)[C@H](C)[C@@H](O)[C@]1(C)O [Example C-49]
[1]
  IC50: 181 µM
[2]
  IL-1ß OS of LPS: 6 µM
[3]
  IC50: 136 µM

## CC[C@H]1OC(=O)[C@H](C)[C@@H](O)[C@H](C)[C@@H](O[C@@H]2O[C@H](C)C[C@H](N(C)C(=O)N3CCOc4ccccc43)[C@H]2Oc2ccccc2)[C@](C)(O)C[C@@H](C)CN(C)[C@H](C)[C@@H](O)[C@]1(C)O [Example D-2]
[1]
  IC50: 40 µM
[2]
  IL-1ß OS of LPS: 16 µM
[3]
  IC50: 148 µM

## CC[C@H]1OC(=O)[C@H](C)[C@@H](O)[C@H](C)[C@@H](O[C@@H]2O[C@H](C)C[C@H](N(C)C(=O)N3CCOc4ccccc43)[C@H]2Oc2ccccc2)[C@](C)(O)C[C@@H](C)CN[C@H](C)[C@@H](O)[C@]1(C)O [Example D-3]
[1]
  IC50: 20 µM
[2]
  IL-1ß OS of LPS: 16 µM
[3]
  IC50: 50 µM

## CC[C@H]1OC(=O)[C@H](C)[C@@H](O[C@H]2C[C@@](C)(OC)[C@](O)(CNCC3CC3)[C@H](C)O2)[C@H](C)[C@@H](O[C@@H]2O[C@H](C)C[C@H](N(C)C)[C@H]2Oc2ccc(F)cc2)[C@](C)(O)C[C@@H](C)CN[C@H](C)[C@@H](O)[C@]1(C)O [Example E-37]
[1]
  IC50: 6 µM
[2]
  IL-1ß OS of LPS: 16 µM
[3]
  IC50: 17 µM

## CC[C@H]1OC(=O)[C@H](C)[C@@H](O[C@H]2C[C@@](C)(OC)[C@](O)(CNn3ccnc3)[C@H](C)O2)[C@H](C)[C@@H](O[C@@H]2O[C@H](C)C[C@H](N(C)C)[C@H]2Oc2ccccc2)[C@](C)(O)C[C@@H](C)CN[C@H](C)[C@@H](O)[C@]1(C)O [Example E-40]
[1]
  IC50: 11 µM
[2]
  IL-1ß OS of LPS: 40 µM
[3]
  IC50: 55 µM

## CCCNC[C@]1(O)[C@H](C)O[C@@H](O[C@H]2[C@H](C)[C@@H](O[C@@H]3O[C@H](C)C[C@H](N(C)C)[C@H]3Oc3ccc4ncccc4c3)[C@](C)(O)C[C@@H](C)CN[C@H](C)[C@@H](O)[C@](C)(O)[C@@H](CC)OC(=O)[C@@H]2C)C[C@@]1(C)OC [Example E-69]
[1]
  IC50: 19 µM
[2]
  IL-1ß OS of LPS: 16 µM
[3]
  IC50: 68 µM

## CCCNC[C@]1(O)[C@H](C)O[C@@H](O[C@H]2[C@H](C)[C@@H](O[C@@H]3O[C@H](C)C[C@H](NC)[C@H]3Oc3ccccc3OCC)[C@](C)(O)C[C@@H](C)CN[C@H](C)[C@@H](O)[C@](C)(O)[C@@H](CC)OC(=O)[C@@H]2C)C[C@@]1(C)OC [Example E-78]
[1]
  IC50: 16 µM
[2]
  IL-1ß OS of LPS: 17 µM
[3]
  IC50: 54 µM

## CCCNC[C@]1(O)[C@H](C)O[C@@H](O[C@H]2[C@H](C)[C@@H](O[C@@H]3O[C@H](C)C[C@H](NC)[C@H]3Oc3ccc(S(C)(=O)=O)cc3)[C@](C)(O)C[C@@H](C)CN[C@H](C)[C@@H](O)[C@](C)(O)[C@@H](CC)OC(=O)[C@@H]2C)C[C@@]1(C)OC [Example E-80]
[1]
  IC50: 45 µM
[2]
  IL-1ß OS of LPS: >250 µM
[3]
  IC50: 65 µM

## CCCNC[C@]1(O)[C@H](C)O[C@@H](O[C@H]2[C@H](C)[C@@H](O[C@@H]3O[C@H](C)C[C@H](NC)[C@H]3Oc3ccc(C(N)=O)cc3)[C@](C)(O)C[C@@H](C)CN[C@H](C)[C@@H](O)[C@](C)(O)[C@@H](CC)OC(=O)[C@@H]2C)C[C@@]1(C)OC [Example E-110]
[1]
  IC50: 125 µM
[2]
  IL-1ß OS of LPS: >500 µM
[3]
  IC50: 175 µM

## CC[C@H]1OC(=O)[C@H](C)[C@@H](O[C@H]2C[C@@](C)(OC)[C@](O)(CN(C)CCN(C)C)[C@H](C)O2)[C@H](C)[C@@H](O[C@@H]2O[C@H](C)C[C@H](N(C)C)[C@H]2Oc2ccc(F)cc2)[C@](C)(O)C[C@@H](C)CN[C@H](C)[C@@H](O)[C@]1(C)O [Example E-113]
[1]
  IC50: 17 µM
[2]
  IL-1ß OS of LPS: 40 µM
[3]
  IC50: 40 µM

## CC[C@H]1OC(=O)[C@H](C)[C@@H](O[C@H]2C[C@@](C)(OC)[C@](O)(CNCCN(C)C)[C@H](C)O2)[C@H](C)[C@@H](O[C@@H]2O[C@H](C)C[C@H](N(C)C)[C@H]2Oc2ccc(F)cc2)[C@](C)(O)C[C@@H](C)CN[C@H](C)[C@@H](O)[C@]1(C)O [Example E-114]
[1]
  IC50: 13 µM
[2]
  IL-1ß OS of LPS: 40 µM
[3]
  IC50: 52 µM
